In publication PMC3347531, “Mutation of Residue βF71 of Escherichia coli Penicillin Acylase Results in Enhanced Enantioselectivity and Improved Catalytic Properties” (Acta Naturae, 2009):

Target: T1, penicillin acylase (PA) from Escherichia coli (Escherichia coli, UniProt P06875)
T1 construct: gene pac; mature alpha/beta heterodimer processed from one precursor; recombinant from plasmid pEC in E. coli, purified
Assay: initial rate hydrolysis, enantioselectivity from kcat/Km ratio
Format: biochemical

T1 sequence (P06875 27-235): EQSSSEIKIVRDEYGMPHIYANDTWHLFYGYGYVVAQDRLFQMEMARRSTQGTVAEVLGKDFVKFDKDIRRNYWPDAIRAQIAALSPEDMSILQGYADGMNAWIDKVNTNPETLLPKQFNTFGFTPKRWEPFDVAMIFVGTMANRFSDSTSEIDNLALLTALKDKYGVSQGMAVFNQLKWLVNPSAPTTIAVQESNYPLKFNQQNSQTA
T1 sequence (P06875 290-846): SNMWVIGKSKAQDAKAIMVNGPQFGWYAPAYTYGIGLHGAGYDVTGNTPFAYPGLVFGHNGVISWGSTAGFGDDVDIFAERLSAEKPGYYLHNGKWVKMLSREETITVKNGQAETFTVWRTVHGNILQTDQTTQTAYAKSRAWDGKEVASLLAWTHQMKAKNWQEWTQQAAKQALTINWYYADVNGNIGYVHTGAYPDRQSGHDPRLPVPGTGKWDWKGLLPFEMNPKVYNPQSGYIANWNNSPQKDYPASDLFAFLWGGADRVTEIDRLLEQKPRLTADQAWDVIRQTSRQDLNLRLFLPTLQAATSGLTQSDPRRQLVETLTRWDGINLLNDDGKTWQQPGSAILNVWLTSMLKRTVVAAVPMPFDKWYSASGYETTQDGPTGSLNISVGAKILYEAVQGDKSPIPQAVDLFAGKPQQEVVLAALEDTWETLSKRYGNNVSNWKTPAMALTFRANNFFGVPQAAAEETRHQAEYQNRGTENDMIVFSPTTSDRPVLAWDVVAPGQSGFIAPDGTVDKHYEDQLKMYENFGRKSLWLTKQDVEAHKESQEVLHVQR

O=C(Cc1ccccc1)N[C@H](C(=O)O)c1ccccc1 [N-phenylacetyl-L-phenylglycine]
initial rate hydrolysis, enantioselectivity from kcat/Km ratio: WT PA exhibits already a very good chiral discrimination of N-phenylacetyl-phenylglycine enantiomers
